Columns and labels:
[1] = system: P388; test: Inhibition of protein-DNA complex in P388 (murine leukemia) cells.; format: functional, Mus musculus
[2] = target: T1, DNA topoisomerase 1 (Homo sapiens, UniProt P11387); test: In vitro inhibition of Topoisomerase I-mediated DNA cleavage using supercoiled pBR322 plasmid DNA.
T1 sequence (P11387 whole entry): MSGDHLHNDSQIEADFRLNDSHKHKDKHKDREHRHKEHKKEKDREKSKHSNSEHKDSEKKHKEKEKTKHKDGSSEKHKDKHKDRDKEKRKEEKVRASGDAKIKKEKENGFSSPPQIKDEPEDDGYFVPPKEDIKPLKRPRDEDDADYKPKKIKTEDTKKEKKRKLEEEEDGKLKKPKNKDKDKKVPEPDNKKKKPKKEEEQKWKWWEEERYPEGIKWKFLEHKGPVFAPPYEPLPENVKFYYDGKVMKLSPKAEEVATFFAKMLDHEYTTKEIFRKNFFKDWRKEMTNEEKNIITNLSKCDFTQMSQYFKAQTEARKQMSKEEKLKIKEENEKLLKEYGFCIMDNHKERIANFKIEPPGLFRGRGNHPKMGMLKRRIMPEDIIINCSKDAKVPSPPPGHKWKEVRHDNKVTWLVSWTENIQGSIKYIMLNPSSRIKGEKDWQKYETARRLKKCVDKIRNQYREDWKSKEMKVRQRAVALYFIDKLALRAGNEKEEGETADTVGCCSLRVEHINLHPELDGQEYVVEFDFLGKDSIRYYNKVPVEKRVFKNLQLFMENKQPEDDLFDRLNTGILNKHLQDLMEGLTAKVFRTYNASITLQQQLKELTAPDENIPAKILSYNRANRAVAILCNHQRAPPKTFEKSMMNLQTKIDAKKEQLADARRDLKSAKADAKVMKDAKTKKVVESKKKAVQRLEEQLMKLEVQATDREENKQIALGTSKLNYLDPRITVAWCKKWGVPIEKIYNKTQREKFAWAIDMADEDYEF

[3] = system: P388; test: In vitro cytotoxicity against p388 (murine leukemia) cells.; format: functional, cell-based; conditions: Mus musculus
[4] = system: DLD-1; test: In vitro cytotoxicity against DLD-1 (human colon cancer) cells.; format: functional, cell-based
[5] = system: MKN-45; test: In vitro cytotoxicity against MKN-45 (human stomach cancer) cells.; format: functional, cell-based
[6] = Compound was tested for anticancer effect on cancer cells implanted subcutaneously into flanks of nude mice and safety margin was determined (LD10/GID75); format: functional, Cancer cell lines
[7] = system: Mus musculus; test: Tested for anticancer effect on MKN-45 human stomach cancer cells implanted subcutaneously into flanks of nude mice.; format: functional

Question: Which EC200 [1] does the source give for `O=C1c2c(c3c4ccccc4n(C4OC(CO)C(O)C(O)C4O)c3c3[nH]c4ccc(O)cc4c23)C(=O)N1NC(CO)CO` (stereo not given) here?
Answer: 2 µM

Question: And the EC50 [2]?
Answer: 1100 nM

Question: And the IC50 [3]?
Answer: 130 nM

Question: And the IC50 [4]?
Answer: 5500 nM

Question: And the IC50 [5]?
Answer: 720 nM

Question: For `O=C1c2c(c3c4ccccc4n(C4OC(CO)C(O)C(O)C4O)c3c3[nH]c4c(O)cccc4c23)C(=O)N1NC(CO)CO` (stereo not given), which EC200 [1] is on record?
Answer: >10 µM

Question: What about the EC50 [2] of the same compound?
Answer: 210 nM

Question: What about the IC50 [3] of the same compound?
Answer: 140 nM

Question: And the IC50 [4]?
Answer: 10000 nM

Question: And the IC50 [5]?
Answer: 1600 nM

Question: With `O=C1c2c(c3c4ccccc4n(C4OC(CO)C(O)C(O)C4O)c3c3[nH]c4cc(O)ccc4c23)C(=O)N1NC(CO)CO` (stereo not given) as the compound, how does the EC200 [1] read?
Answer: 1.2 µM

Question: What about the EC50 [2] of the same compound?
Answer: 650 nM

Question: What about the Ratio [6] of the same compound?
Answer: 3.3

Question: What about the IC50 [3] of the same compound?
Answer: 13 nM

Question: And the GID75 [7]?
Answer: 820 mg m**-2

Question: What about the LD10 [7] of the same compound?
Answer: 2700 mg m**-2

Question: What about the IC50 [4] of the same compound?
Answer: 2000 nM

Question: And the IC50 [5]?
Answer: 110 nM

Question: For `O=C1c2c(c3c4cccc(O)c4n(C4OC(CO)C(O)C(O)C4O)c3c3[nH]c4ccc(O)cc4c23)C(=O)N1NC(CO)CO` (stereo not given), which EC200 [1] is on record?
Answer: 0.55 µM

Question: What about the EC50 [2] of the same compound?
Answer: 510 nM

Question: And the Ratio [6]?
Answer: 0.8

Question: And the IC50 [3]?
Answer: 32 nM

Question: What about the GID75 [7] of the same compound?
Answer: 2500 mg m**-2

Question: What about the LD10 [7] of the same compound?
Answer: 1900 mg m**-2

Question: What about the IC50 [4] of the same compound?
Answer: 220 nM

Question: What about the IC50 [5] of the same compound?
Answer: 250 nM

Question: For `O=C1c2c(c3c4cc(O)ccc4n(C4OC(CO)C(O)C(O)C4O)c3c3[nH]c4ccccc4c23)C(=O)N1NC(CO)CO` (stereo not given), which EC200 [1] is on record?
Answer: 4.5 µM

Question: And the EC50 [2]?
Answer: 1900 nM

Question: And the IC50 [3]?
Answer: 47 nM

Question: And the IC50 [4]?
Answer: > 30000 nM

Question: What about the IC50 [5] of the same compound?
Answer: 4200 nM

Question: What does the source list for `O=C1c2c(c3c4c(O)cccc4n(C4OC(CO)C(O)C(O)C4O)c3c3[nH]c4ccccc4c23)C(=O)N1NC(CO)CO` (stereo not given)?
Answer: EC200 [1]: >10 µM; EC50 [2]: 490 nM; IC50 [3]: 910 nM; IC50 [4]: > 30000 nM; IC50 [5]: 7100 nM

Question: Which EC200 [1] does the source give for `O=C1c2c(c3c4ccccc4n(C4OC(CO)C(O)C(O)C4O)c3c3[nH]c4cccc(O)c4c23)C(=O)N1NC(CO)CO` (stereo not given) here?
Answer: >10 µM

Question: What about the EC50 [2] of the same compound?
Answer: 570 nM

Question: And the IC50 [3]?
Answer: 700 nM

Question: What about the IC50 [4] of the same compound?
Answer: > 30000 nM

Question: And the IC50 [5]?
Answer: 2100 nM

Question: Which results are given for `O=C1c2c(c3c4cc(O)ccc4n(C4OC(CO)C(O)C(O)C4O)c3c3[nH]c4ccc(O)cc4c23)C(=O)N1NC(CO)CO` (stereo not given)?
Answer: EC200 [1]: 0.6 µM; EC50 [2]: 210 nM; Ratio [6]: 1.3; IC50 [3]: 6.8 nM; GID75 [7]: 300 mg m**-2; LD10 [7]: 380 mg m**-2; IC50 [4]: 11000 nM; IC50 [5]: 250 nM

Question: For `O=C1c2c(c3c4ccc(O)cc4n(C4OC(CO)C(O)C(O)C4O)c3c3[nH]c4c(O)cc(O)cc4c23)C(=O)N1NC(CO)CO` (stereo not given), which EC200 [1] is on record?
Answer: >10 µM

Question: What about the EC50 [2] of the same compound?
Answer: 90 nM

Question: What about the IC50 [3] of the same compound?
Answer: 15000 nM

Question: What about the IC50 [4] of the same compound?
Answer: > 30000 nM

Question: And the IC50 [5]?
Answer: > 30000 nM

Question: With `O=C1c2c(c3c4cccc(O)c4n(C4OC(CO)C(O)C(O)C4O)c3c3[nH]c4c(O)cccc4c23)C(=O)N1NC(CO)CO` (stereo not given) as the compound, how does the EC200 [1] read?
Answer: 0.45 µM

Question: And the Ratio [6]?
Answer: 5

Question: And the GID75 [7]?
Answer: 78 mg m**-2

Question: What about the LD10 [7] of the same compound?
Answer: 390 mg m**-2

Question: What about the IC50 [4] of the same compound?
Answer: 520 nM

Question: Which EC200 [1] does the source give for `O=C1c2c(c3c4cccc(O)c4n(C4OC(CO)C(O)C(O)C4O)c3c3[nH]c4ccccc4c23)C(=O)N1NC(CO)CO` (stereo not given) here?
Answer: 2 µM

Question: What about the EC50 [2] of the same compound?
Answer: 650 nM

Question: What about the IC50 [3] of the same compound?
Answer: 22 nM

Question: And the IC50 [4]?
Answer: 2600 nM

Question: What about the IC50 [5] of the same compound?
Answer: 640 nM

Question: Which EC200 [1] does the source give for `O=C1c2c(c3c4cc(O)ccc4n(C4OC(CO)C(O)C(O)C4O)c3c3[nH]c4cc(O)ccc4c23)C(=O)N1NC(CO)CO` (stereo not given) here?
Answer: 0.65 µM

Question: And the EC50 [2]?
Answer: 55 nM

Question: And the Ratio [6]?
Answer: 1.4

Question: And the IC50 [3]?
Answer: 3.5 nM

Question: And the GID75 [7]?
Answer: 710 mg m**-2

Question: What about the LD10 [7] of the same compound?
Answer: 1000 mg m**-2

Question: And the IC50 [4]?
Answer: 340 nM

Question: And the IC50 [5]?
Answer: 120 nM

Question: What does the source list for `O=C1c2c(c3c4ccc(O)cc4n(C4OC(CO)C(O)C(O)C4O)c3c3[nH]c4c(O)cccc4c23)C(=O)N1NC(CO)CO` (stereo not given)?
Answer: EC200 [1]: 0.8 µM; EC50 [2]: 55 nM; Ratio [6]: 1.1; IC50 [3]: 10 nM; GID75 [7]: 320 mg m**-2; LD10 [7]: 350 mg m**-2; IC50 [4]: 200 nM; IC50 [5]: 65 nM

Question: Which results are given for `O=C1c2c(c3c4ccc(O)cc4n(C4OC(CO)C(O)C(O)C4O)c3c3[nH]c4ccc(O)cc4c23)C(=O)N1NC(CO)CO` (stereo not given)?
Answer: EC200 [1]: 0.35 µM; EC50 [2]: 37 nM; Ratio [6]: 3.4; IC50 [3]: 5.2 nM; GID75 [7]: 290 mg m**-2; LD10 [7]: 1000 mg m**-2; IC50 [4]: 79 nM; IC50 [5]: 56 nM

Question: Which results are given for `O=C1c2c(c3c4cc(O)cc(O)c4n(C4OC(CO)C(O)C(O)C4O)c3c3[nH]c4c(O)cc(O)cc4c23)C(=O)N1NC(CO)CO` (stereo not given)?
Answer: EC200 [1]: 5.5 µM; EC50 [2]: 350 nM; IC50 [3]: > 30000 nM; IC50 [4]: > 30000 nM; IC50 [5]: > 30000 nM

Question: What does the source list for `O=C1c2c(c3c4ccc(O)cc4n(C4OC(CO)C(O)C(O)C4O)c3c3[nH]c4ccccc4c23)C(=O)N1NC(CO)CO` (stereo not given)?
Answer: EC200 [1]: 0.4 µM; EC50 [2]: 230 nM; Ratio [6]: 1.3; IC50 [3]: 3.1 nM; GID75 [7]: 800 mg m**-2; LD10 [7]: 1000 mg m**-2; IC50 [4]: 1000 nM; IC50 [5]: 25 nM

Question: With `O=C1c2c(c3c4cccc(O)c4n(C4OC(CO)C(O)C(O)C4O)c3c3[nH]c4cc(O)ccc4c23)C(=O)N1NC(CO)CO` (stereo not given) as the compound, how does the EC200 [1] read?
Answer: 0.4 µM

Question: And the EC50 [2]?
Answer: 160 nM

Question: What about the Ratio [6] of the same compound?
Answer: 1.7

Question: And the IC50 [3]?
Answer: 5.4 nM

Question: What about the GID75 [7] of the same compound?
Answer: 220 mg m**-2

Question: What about the LD10 [7] of the same compound?
Answer: 370 mg m**-2

Question: What about the IC50 [4] of the same compound?
Answer: 89 nM

Question: What about the IC50 [5] of the same compound?
Answer: 87 nM

Question: For `O=C1c2c(c3c4cc(O)ccc4n(C4OC(CO)C(O)C(O)C4O)c3c3[nH]c4c(O)cccc4c23)C(=O)N1NC(CO)CO` (stereo not given), which EC200 [1] is on record?
Answer: 3 µM

Question: What about the EC50 [2] of the same compound?
Answer: 130 nM

Question: What about the Ratio [6] of the same compound?
Answer: 0.8

Question: What about the IC50 [3] of the same compound?
Answer: 31 nM

Question: And the GID75 [7]?
Answer: 2200 mg m**-2

Question: And the LD10 [7]?
Answer: 1800 mg m**-2

Question: And the IC50 [4]?
Answer: 5100 nM

Question: And the IC50 [5]?
Answer: 300 nM

Question: Which EC200 [1] does the source give for `O=C1c2c(c3c4ccc(O)cc4n(C4OC(CO)C(O)C(O)C4O)c3c3[nH]c4cc(O)ccc4c23)C(=O)N1NC(CO)CO` (stereo not given) here?
Answer: 0.1 µM

Question: And the EC50 [2]?
Answer: 51 nM

Question: What about the Ratio [6] of the same compound?
Answer: >36

Question: And the IC50 [3]?
Answer: 1.5 nM

Question: And the GID75 [7]?
Answer: 45 mg m**-2

Question: And the LD10 [7]?
Answer: >1600 mg m**-2

Question: What about the IC50 [4] of the same compound?
Answer: 120 nM

Question: And the IC50 [5]?
Answer: 4.8 nM
